In patent US11976083B2, “Inhibitors of peptidylarginine deiminases” (Gilead Sciences, Inc., priority 2020, dated 2024):
pIC50: −log10 of the molar value.

Molecular target: T1, human PAD4 (Homo sapiens, UniProt Q9UM07)
T1 construct: human PAD4 (NM_012387), A2-P663, was PCR amplified; His-SUMO (N, cleaved yes); made in house; host or cells: E. coli BL21(DE3)
Experiment: In vitro PAD4 BAEE biochemical assay
Conditions: BAEE substrate 3 mM, 5 nM PAD4, 2 mM calcium chloride; geometric mean of multiple experiments
In short: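 Fluorescence read-out (ex 405/em 535 nm) of isoindole formed from ammonia, o-phthalaldehyde and DTT after EDTA stop. Reaction: 5 nM PAD4, 2 mM CaCl2, 3 mM BAEE, 2 h, 25 °C, after 30 min enzyme–compound preincubation. Normalised to BB-Cl-Amidine (50 µM) and DMSO controls.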

T1 sequence (Q9UM07 2-663): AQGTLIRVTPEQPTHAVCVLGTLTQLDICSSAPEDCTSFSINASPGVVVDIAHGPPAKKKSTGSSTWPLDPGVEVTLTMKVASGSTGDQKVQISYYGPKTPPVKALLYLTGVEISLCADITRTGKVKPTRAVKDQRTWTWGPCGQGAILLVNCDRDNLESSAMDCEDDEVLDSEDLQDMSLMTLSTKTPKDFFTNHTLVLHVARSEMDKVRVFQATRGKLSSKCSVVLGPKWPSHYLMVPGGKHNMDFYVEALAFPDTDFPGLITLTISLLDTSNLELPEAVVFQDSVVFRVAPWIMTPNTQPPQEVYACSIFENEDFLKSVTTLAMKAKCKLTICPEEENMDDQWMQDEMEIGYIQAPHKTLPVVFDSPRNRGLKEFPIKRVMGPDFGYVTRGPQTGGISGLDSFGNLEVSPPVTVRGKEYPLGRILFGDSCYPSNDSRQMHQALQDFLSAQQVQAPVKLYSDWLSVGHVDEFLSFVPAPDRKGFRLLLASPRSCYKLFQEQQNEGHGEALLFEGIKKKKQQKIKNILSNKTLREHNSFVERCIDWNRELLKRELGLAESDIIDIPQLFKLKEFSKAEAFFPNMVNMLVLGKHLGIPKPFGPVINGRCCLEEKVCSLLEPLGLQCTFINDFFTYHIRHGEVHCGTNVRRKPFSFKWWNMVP

Compound	pIC50
COc1cc(C(=O)N2CC[C@@H](OC(F)F)[C@@H](N)C2)cc2nc(-c3cc4ccc5nc4n3CCCCCCC3(COC3)C(=O)N[C@@H]5C)n(C)c12 [Example 613, (11~{R})-17-[5-[(3~{S},4~{R})-3-amino-4-(difluoromethoxy)piperidine-1-carbonyl]-7-methoxy-1-methyl-benzimidazol-2-yl]-11-methyl-spiro[1,10,19-triazatricyclo[10.5.2.0^ {15,18}]nonadeca-12,14,16,18-tetraene-8,3′-oxetane]-9-one]	6.97
COc1cc(C(=O)N2CCC[C@@H](N)C2)cc2nc(-c3cc4ccc5nc4n3CCCCCCCCS(=O)(=O)N5C)n(C)c12 [Example 937]	6.73
COc1cc(C(=O)N2C[C@H](N)[C@@H]3CC[C@H]2C3)cc2nc(-c3cc4ccc5nc4n3CC(F)(F)CCC[C@]3(F)C[C@H]3C(=O)N[C@@H]5C)n(C)c12 [Example 448, (2~{R},5~{S},7~{S})-14-[5-[(1~{S},4~{R},5~{R})-4-amino-2-azabicyclo[3.2.1]octane-2-carbonyl]-7-methoxy-1-methyl-benzimidazol-2-yl]-7,11,11-trifluoro-2-methyl-3,13,19-triazatetracyclo[11.5.2.0^{5,7}.0^{16,20}] icosa-1(19),14,16(20),17-tetraen-4-one]	7.59
COc1cc(C(=O)N2CC[C@H]3OCCN[C@H]3C2)cc2nc(-c3cc4ccc5cc4n3CCCCCCC(C)(C)C(=O)N[C@@H]5C)n(C)c12 [Example 190, (11~{R})-17-[5-[(4~{a}~{S},8~{a}~{R})-2,3,4,4~{a},5,7,8,8~{a}-octahydropyrido[4,3-b][1,4]oxazine-6-carbonyl]-7-methoxy-1-methyl-benzimidazol-2-yl]-8,8,11-trimethyl-1,10-diazatricyclo[10.5.2.0^{15,18}]nonadeca-12(19),13,15(18),16-tetraen-9-one]	7.03
COc1cc(C(=O)N2[C@H]3CC[C@@H]2[C@H](N)C3)cc2nc(-c3cc4ccc5nc4n3CCCCCCC(=O)N[C@@H]5C)c(C)n12 [Example 317, (10~{R})-16-[7-[(1~{R},2~{R},4~{S})-2-amino-7-azabicyclo[2.2.1]heptane-7-carbonyl]-5-methoxy-3-methyl-imidazo[1,2-a]pyridin-2-yl]-10-methyl-1,9,18-triazatricyclo[9.5.2.0^{14,17}]octadeca-11(18),12,14(17),15-tetraen-8-one]	7.80
CO[C@H]1C[C@@H]1n1c(-c2cc3ccc4nc3n2CC(F)(F)CCC[C@@H]2C[C@H]2C(=O)N[C@@H]4C)nc2cc(C(=O)N3CCC[C@@H](N)[C@H]3C)cc(F)c21 [Example 802, (2~{R},5~{R},7~{R})-14-[5-[(2~{R},3~{R})-3-amino-2-methyl-piperidine-1-carbonyl]-7-fluoro-1-[(1~{S},2~{S})-2-methoxycyclopropyl]benzimidazol-2-yl]-11,11-difluoro-2-methyl-3,13,19-triazatetracyclo [11.5.2.0^{5,7}.0^{16,20}] icosa-1(18),14,16,19-tetraen-4-one]	7.66
COc1cc(C(=O)N2[C@H]3CC[C@@H]2[C@H](N)C3)cc2nc(-c3cc4ccc5nc4n3CCCCC[C@@H](OC)C(C)(C)C(=O)N[C@@H]5C)n(C)c12 [Example 219, (7~{R},11~{R})-17-[5-[(1~{R},2~{R},4~{S})-2-amino-7-azabicyclo[2.2.1]heptane-7-carbonyl]-7-methoxy-1-methyl-benzimidazol-2-yl]-7-methoxy-8,8,11-trimethyl-1,10,19-triazatricyclo[10.5.2.0^{15,18}]nonadeca-12(19),13,15(18),16-tetraen-9-one]	7.14

Other lines, results leading:

pIC50	Compound
7.96	C[C@H]1NC(=O)[C@@](F)(c2ccccn2)CCCCCCn2c(-c3nc4cc(C(=O)N5C[C@H](N)[C@@H]6CC[C@H]5C6)cc(F)c4n3C3CC3)cc3ccc1nc32 [Example 885, (8~{S},11~{R})-17-[5-[(1~{S},4~{R},5~{R})-4-amino-2-azabicyclo[3.2.1]octane-2-carbonyl]-1-cyclopropyl-7-fluoro-benzimidazol-2-yl]-8-fluoro-11-methyl-8-(2-pyridyl)-1,10,19-triazatricyclo[10.5.2.0^ {15,18}]nonadeca-12(19), 13,15(18),16-tetraen-9-one]
6.60	COc1cc(C(=O)N2CC[C@@H](OC(F)F)[C@@H](N)C2)cc2nc(-c3cc4ccc5nc4n3CCCCCc3ccccc3C(=O)N[C@@H]5C)n(C)c12 [Example 491, (2~{R})-17-[5-[(3~ {S},4~{R})-3-amino-4-(difluoromethoxy)piperidine-1-carbonyl]-7-methoxy-1-methyl-benzimidazol-2-yl]-2-methyl-3,16,22-triazatetracyclo [14.5.2.0^{5,10}.0^{19,23}] tricosa-1(22),5(10), 6,8,17,19(23),20-heptaen-4-one]
8.30	COc1cc(C(=O)N2C[C@H](N)[C@@H]3CC[C@H]2C3)cc2nc(-c3cc4ccc5nc4n3CCCCC[C@H]3[C@H](C(=O)N[C@@H]5C)C3(F)F)n(C)c12 [Example 757, (2~{R},5~{R},7~{S})-14-[5-[(1~{S},4~{R},5~{R})-4-amino-2-azabicyclo[3.2.1]octane-2-carbonyl]-7-methoxy-1-methyl-benzimidazol-2-yl]-6,6-difluoro-2-methyl-3,13,19-triazatetracyclo[11.5.2.0^ {5,7}.0^{16,20}]icosa-1(19), 14,16(20),17-tetraen-4-one]
6.82	COc1cc(C(=O)N2CC[C@@H](OC)[C@@H](N)C2)cc2nc(-c3cc4ccc5nc4n3CCCCCCC3(CC3)C(=O)N[C@@H]5C)n(C)c12 [Example 62, (11~{R})-17-[5-[(3~{S},4~{R})-3-amino-4-methoxy-piperidine-1-carbonyl]-7-methoxy-1-methyl-benzimidazol-2-yl]-11-methyl-spiro[1,10,19-triazatricyclo[10.5.2.0^{15,18}]nonadeca-12(19),13,15(18),16-tetraene-8,1′-cyclopropane]-9-one]
7.21	COc1cc(C(=O)N2[C@H]3CC[C@@H]2[C@H](N)C3)cc2nc(-c3cc4ccc5nc4n3CCCCCOCC(C)(C)C(=O)N[C@@H]5C)n(C)c12 [Example 22, (12~{R})-18-[5-[(1~{R},2~{R},4~{S})-2-amino-7-azabicyclo[2.2.1]heptane-7-carbonyl]-7-methoxy-1-methyl-benzimidazol-2-yl]-9,9,12-trimethyl-7-oxa-1,11,20-triazatricyclo[11.5.2.0^{16,19}]icosa-13(20),14,16(19),17-tetraen-10-one]
7.12	COc1cc(C(=O)N2[C@H]3CC[C@@H]2[C@H](N)C3)cc2nc(-c3cc4ccc5nc4n3CCCCCCNC(=O)c3ccccc3-5)n(C)c12 [Example 48, 17-[5-[(1~{R),2~{R},4~{S})-2-amino-7-azabicyclo[2.2.1]heptane-7-carbonyl]-7-methoxy-1-methyl-benzimidazol-2-yl]-9,16,22-triazatetracyclo[14.5.2.0^{2,7}.0^{19,23}] tricosa-1(22),2,4,6,17,19(23),20-heptaen-8-one]
7.17	C[C@H]1NC(=O)c2ncccc2CCCCCn2c(-c3nc4cc(C(=O)N[C@H]5CNCC[C@@H]5F)c(F)cc4n3C)cc3ccc1nc32 [Example 498, 6-fluoro-~{N}-[(3~{S}, 4~{S})-4-fluoro-3-piperidyl]-1-methyl-2-[(2~{R})-2-methyl-4-oxo-3,6,16,22-tetrazatetracyclo [14.5.2.0^{5,10}.0^ {19,23}]tricosa-1(22), 5,7,9,17,19(23),20-heptaen-17-yl]benzimidazole-5-carboxamide]
